Article doi:10.1101/2024.08.19.608619, “Discovery of potent SARS-CoV-2 nsp3 macrodomain inhibitors uncovers lack of translation to cellular antiviral response” (bioRxiv, 2024)
Several values for one entry are separate records, joined by “and”; a condition that tells them apart may be missing. Equal values may be shown once.

How the values were obtained:
KV channel = assay: In vitro CEREP profiling, KV channel (antagonist radioligand); type: binding; details: test compound concentration 10 uM
From the text: (§1) Supplement media-1.zip/Safety_Panel_Profile.csv, table | column: perc_inhibition

[1] = target: T1, Potassium Channel hERG (human) (Homo sapiens, UniProt Q12809); assay: In vitro CEREP profiling, Potassium Channel hERG (human)- [3H] Dofetilide; type: binding; details: test compound concentration 10 uM
T1 construct: purchased Eurofins Cerep (SafetyScreen44), recognised from the panel format
T1 sequence (Q12809 whole entry): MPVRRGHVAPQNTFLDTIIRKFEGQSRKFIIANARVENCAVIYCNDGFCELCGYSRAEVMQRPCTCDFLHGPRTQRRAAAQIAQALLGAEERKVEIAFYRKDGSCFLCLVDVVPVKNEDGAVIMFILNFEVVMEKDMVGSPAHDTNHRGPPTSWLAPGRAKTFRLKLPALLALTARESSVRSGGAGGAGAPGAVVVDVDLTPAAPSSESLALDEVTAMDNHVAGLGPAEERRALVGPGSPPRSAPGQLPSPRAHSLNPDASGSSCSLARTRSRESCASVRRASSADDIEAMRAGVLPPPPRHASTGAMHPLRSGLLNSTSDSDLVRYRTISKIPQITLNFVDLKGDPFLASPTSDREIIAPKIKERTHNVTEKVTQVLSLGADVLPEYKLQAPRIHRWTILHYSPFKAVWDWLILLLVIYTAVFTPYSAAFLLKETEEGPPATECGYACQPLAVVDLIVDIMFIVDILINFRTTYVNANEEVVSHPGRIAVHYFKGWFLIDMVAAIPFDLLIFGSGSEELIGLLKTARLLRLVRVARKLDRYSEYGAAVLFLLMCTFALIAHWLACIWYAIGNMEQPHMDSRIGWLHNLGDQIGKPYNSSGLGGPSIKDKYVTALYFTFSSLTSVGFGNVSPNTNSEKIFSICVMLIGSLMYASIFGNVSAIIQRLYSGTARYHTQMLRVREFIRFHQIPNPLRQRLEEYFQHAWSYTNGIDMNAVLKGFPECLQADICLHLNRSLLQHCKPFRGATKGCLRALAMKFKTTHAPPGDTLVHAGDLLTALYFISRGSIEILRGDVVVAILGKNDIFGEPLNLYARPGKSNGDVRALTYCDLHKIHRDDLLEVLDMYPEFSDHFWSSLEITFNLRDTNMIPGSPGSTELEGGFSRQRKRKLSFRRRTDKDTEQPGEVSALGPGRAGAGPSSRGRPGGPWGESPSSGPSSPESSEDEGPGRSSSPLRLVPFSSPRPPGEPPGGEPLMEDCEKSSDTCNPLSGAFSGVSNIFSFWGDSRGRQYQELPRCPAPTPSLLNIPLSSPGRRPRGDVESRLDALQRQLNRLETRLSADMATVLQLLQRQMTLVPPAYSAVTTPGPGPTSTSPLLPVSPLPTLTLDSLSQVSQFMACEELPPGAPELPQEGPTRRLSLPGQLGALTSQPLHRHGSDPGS
From the text: as §1

[2] = system: Ca2+ channel (L, dihydropyridine site); assay: In vitro CEREP profiling, Ca2+ channel (L, dihydropyridine site) (antagonist radioligand); type: binding; details: test compound concentration 10 uM
From the text: as §1

Lck kinase (h) = target: T2, Lck kinase (h) (Homo sapiens, UniProt P06239); assay: In vitro CEREP profiling, Lck kinase (h); type: biochemical; details: test compound concentration 10 uM, Enzyme and Cell-based assays
T2 construct: purchased Eurofins Cerep (SafetyScreen44), recognised from the panel format
T2 sequence (P06239 whole entry): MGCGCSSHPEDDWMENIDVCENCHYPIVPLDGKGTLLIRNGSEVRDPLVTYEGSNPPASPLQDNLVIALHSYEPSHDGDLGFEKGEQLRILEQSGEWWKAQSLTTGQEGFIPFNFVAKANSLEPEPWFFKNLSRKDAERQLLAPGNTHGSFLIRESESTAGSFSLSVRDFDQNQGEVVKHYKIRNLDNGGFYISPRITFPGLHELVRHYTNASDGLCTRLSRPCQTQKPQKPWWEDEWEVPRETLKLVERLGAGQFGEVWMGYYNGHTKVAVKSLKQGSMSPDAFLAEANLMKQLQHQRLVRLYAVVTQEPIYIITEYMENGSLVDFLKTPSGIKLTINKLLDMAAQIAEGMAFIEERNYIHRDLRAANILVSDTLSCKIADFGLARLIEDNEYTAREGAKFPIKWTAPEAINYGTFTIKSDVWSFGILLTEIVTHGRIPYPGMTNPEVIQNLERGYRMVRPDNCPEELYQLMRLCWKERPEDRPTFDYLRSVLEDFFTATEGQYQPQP
From the text: as §1

PDE3A (h) = target: T3, PDE3A (h) (Homo sapiens, UniProt Q14432); assay: In vitro CEREP profiling, PDE3A (h); type: biochemical; details: test compound concentration 10 uM, Enzyme and Cell-based assays
T3 construct: purchased Eurofins Cerep (SafetyScreen44), recognised from the panel format
T3 sequence (Q14432 whole entry): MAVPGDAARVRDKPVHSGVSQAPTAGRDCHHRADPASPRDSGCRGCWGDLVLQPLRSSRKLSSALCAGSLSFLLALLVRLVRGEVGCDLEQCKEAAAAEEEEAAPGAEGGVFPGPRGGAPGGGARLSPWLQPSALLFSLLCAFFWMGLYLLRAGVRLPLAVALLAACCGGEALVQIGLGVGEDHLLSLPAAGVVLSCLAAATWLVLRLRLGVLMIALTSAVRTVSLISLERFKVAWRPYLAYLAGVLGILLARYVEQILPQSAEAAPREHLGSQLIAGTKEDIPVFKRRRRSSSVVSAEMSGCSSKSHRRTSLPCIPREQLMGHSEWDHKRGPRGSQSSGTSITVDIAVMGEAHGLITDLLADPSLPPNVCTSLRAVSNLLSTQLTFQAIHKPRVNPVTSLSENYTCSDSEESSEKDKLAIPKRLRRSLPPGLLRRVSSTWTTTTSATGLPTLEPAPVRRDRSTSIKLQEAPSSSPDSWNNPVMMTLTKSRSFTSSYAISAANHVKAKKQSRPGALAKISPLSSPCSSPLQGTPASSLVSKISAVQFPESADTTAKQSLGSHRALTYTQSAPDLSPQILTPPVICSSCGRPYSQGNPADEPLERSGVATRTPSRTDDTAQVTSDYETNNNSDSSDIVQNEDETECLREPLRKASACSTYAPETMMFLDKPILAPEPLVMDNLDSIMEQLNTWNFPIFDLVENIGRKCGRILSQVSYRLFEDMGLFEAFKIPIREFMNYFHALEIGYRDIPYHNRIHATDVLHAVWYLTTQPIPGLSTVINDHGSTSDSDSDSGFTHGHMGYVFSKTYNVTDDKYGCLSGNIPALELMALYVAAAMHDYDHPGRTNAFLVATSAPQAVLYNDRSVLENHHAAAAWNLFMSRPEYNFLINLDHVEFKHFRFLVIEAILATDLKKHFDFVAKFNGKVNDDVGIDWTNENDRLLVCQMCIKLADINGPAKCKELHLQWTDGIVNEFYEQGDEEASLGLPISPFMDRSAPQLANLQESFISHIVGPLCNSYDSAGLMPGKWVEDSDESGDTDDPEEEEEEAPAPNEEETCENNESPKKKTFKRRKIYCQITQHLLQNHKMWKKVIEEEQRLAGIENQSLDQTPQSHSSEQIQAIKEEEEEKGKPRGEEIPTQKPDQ
From the text: as §1

Na+ channel (site 2) = assay: In vitro CEREP profiling, Na+ channel (site 2) (antagonist radioligand); type: binding; details: test compound concentration 10 uM
From the text: as §1

beta1 (h) = target: T4, beta1 (h) (Homo sapiens, UniProt P08588); assay: In vitro CEREP profiling, beta1 (h) (agonist radioligand); type: binding; details: test compound 10 uM
T4 construct: purchased Eurofins Cerep (SafetyScreen44), recognised from the panel format
T4 sequence (P08588 whole entry): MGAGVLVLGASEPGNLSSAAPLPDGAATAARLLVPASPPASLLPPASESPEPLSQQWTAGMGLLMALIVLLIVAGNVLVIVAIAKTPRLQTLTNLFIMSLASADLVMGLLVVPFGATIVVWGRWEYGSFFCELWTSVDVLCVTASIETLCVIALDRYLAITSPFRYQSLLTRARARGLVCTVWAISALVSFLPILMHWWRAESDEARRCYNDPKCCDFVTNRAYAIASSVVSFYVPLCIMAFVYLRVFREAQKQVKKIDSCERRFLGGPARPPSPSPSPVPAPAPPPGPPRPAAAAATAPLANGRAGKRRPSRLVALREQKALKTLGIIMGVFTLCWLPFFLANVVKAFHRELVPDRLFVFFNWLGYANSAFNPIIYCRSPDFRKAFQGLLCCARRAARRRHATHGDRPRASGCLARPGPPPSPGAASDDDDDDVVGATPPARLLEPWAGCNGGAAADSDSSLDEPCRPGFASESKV
From the text: as §1

PDE4D2 (h) = target: T5, PDE4D2 (h) (Homo sapiens, UniProt Q08499); assay: In vitro CEREP profiling, PDE4D2 (h); type: biochemical; details: test compound concentration 10 uM, Enzyme and Cell-based assays
T5 construct: purchased Eurofins Cerep (SafetyScreen44), recognised from the panel format
T5 sequence (Q08499 303-809): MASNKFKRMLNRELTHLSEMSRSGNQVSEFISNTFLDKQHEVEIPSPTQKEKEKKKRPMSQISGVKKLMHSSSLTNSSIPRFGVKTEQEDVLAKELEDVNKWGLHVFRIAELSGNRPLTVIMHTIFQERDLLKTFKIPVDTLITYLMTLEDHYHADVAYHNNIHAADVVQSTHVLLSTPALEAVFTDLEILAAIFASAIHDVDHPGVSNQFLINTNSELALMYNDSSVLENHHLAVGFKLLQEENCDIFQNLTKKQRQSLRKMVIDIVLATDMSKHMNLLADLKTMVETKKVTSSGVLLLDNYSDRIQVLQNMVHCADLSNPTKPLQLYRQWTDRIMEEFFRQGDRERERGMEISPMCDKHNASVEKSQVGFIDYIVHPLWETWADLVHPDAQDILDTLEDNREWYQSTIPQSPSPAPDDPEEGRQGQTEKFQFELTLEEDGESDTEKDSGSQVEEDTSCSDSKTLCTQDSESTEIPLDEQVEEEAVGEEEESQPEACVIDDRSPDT
From the text: as §1

hERG = hERG (Homo sapiens, UniProt Q12809); assay: In vitro hERG cardiotoxocity; details: top test concentration 30 uM
Chain of hERG (Q12809 whole entry): as the sequence (Q12809 whole entry) above
From the text: Supplement media-1.zip/Cardiotoxicity.csv, table | column: ic50; perc_inhibition_top_conc

[3] = Hepatic microsomal stability, HLM; type: in vitro ADME, human; details: for perc_remaining_no_cofactor: no cofactor
[4] = In vitro rat hepatocyte stability; type: in vitro ADME
From the text: Supplement media-1.zip/Hepatocyte_Stability.csv, table | column: clint; t_half

CYP = CYP inhibition; type: in vitro ADME; details: In vitro CYP inhibition pooled; for potency: potency class in words
From the text: Supplement media-1.zip/CYP_Inhibition.csv, table | column: ic50; potency

alpha2A (h) = target: T6, alpha2A (h) (Homo sapiens, UniProt P08913); assay: In vitro CEREP profiling, alpha2A (h) (antagonist radioligand); type: binding; details: test compound 10 uM
T6 construct: purchased Eurofins Cerep (SafetyScreen44), recognised from the panel format
T6 sequence (P08913 1-465): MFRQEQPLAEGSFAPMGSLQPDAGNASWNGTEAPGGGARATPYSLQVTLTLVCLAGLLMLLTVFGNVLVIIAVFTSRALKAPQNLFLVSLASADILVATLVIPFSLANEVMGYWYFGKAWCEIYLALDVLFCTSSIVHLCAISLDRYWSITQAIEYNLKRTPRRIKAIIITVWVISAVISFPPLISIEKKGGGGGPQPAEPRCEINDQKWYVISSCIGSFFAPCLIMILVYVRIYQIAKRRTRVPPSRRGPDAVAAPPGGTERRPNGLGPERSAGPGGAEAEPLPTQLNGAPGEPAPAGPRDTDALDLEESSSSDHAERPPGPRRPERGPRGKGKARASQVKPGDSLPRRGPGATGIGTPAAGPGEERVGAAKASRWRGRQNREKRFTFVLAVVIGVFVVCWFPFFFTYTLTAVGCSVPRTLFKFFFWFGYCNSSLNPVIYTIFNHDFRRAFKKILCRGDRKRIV
From the text: as §1

COX2(h) = target: T7, COX2(h) (Homo sapiens, UniProt P35354); assay: In vitro CEREP profiling, COX2(h); type: biochemical; details: test compound concentration 10 uM, Enzyme and Cell-based assays
T7 construct: purchased Eurofins Cerep (SafetyScreen44), recognised from the panel format
T7 sequence (P35354 18-604): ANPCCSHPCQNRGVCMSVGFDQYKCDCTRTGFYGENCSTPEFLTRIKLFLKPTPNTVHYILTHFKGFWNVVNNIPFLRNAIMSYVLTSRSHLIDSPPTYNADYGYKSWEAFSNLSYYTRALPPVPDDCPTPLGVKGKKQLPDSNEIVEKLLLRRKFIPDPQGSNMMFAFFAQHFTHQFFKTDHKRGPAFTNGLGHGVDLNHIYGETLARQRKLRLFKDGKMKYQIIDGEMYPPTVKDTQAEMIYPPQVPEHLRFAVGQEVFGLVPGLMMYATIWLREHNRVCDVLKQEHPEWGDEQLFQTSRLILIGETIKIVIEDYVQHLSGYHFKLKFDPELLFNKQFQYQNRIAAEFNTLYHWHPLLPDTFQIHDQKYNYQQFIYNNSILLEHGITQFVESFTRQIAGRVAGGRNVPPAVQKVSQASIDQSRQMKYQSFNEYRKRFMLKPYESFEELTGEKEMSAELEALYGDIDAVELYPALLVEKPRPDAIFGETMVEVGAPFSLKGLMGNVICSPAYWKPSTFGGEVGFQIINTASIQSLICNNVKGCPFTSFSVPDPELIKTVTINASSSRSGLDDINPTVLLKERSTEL
From the text: as §1

MERS-CoV = assay: microbe, parasite or virus in culture; type: cell-based
Vero E6/TMPRSS2 = Vero E6/TMPRSS2 cytotoxicity with P-gp inhibitor; type: cell-based
From the text: Supplement media-1.zip/Cytotoxicity.csv, table | column: cc10; cc50; perc_min_measured; perc_max_measured

[5] = In vitro human liver microsomal stability
[6] = Middle East respiratory syndrome-related coronavirus, VeroE6/TMPRSS2
[7] = read-out: perc_inhibition (% inhibition of the binding of a ligand specific for each target)

Structure (SMILES): Cn1ncc(-c2cc3c(N[C@@H](c4ccc5c(n4)OCCO5)C(C)(C)C)ncnc3[nH]2)c1C#N [ASAP-0011221]
- perc_inhibition (% inhibition of the binding of a ligand specific for each target) (KV channel): 5%
- perc_inhibition (% inhibition of the binding of a ligand specific for each target) [1]: 36%
- perc_inhibition (% inhibition of the binding of a ligand specific for each target) [2]: 21%
- perc_inhibition: % inhibition of control enzyme activity, Lck kinase (h) (Lck kinase (h)): 47%
- perc_inhibition: % inhibition of control enzyme activity, PDE3A (h) (PDE3A (h)): 37%
- perc_inhibition (% inhibition of the binding of a ligand specific for each target) (Na+ channel (site 2)): 34%
- perc_inhibition (% inhibition of the binding of a ligand specific for each target) (beta1 (h)): 11%
- perc_inhibition: % inhibition of control enzyme activity, PDE4D2 (h) (PDE4D2 (h)): 20%
- IC50 (hERG): 19.5 µM
- clint [3, 5]: 283.0 µL/min/mg
- perc_remaining [3, 5]: 1.0%
- t_half [3, 5]: 5.9 min
- perc_remaining_no_cofactor [3, 5]: 85.0%
- clint [4]: 185.0 uL/min/1E6 cells
- t_half [4]: 3.76 min
- IC50 (CYP; isoform 1A2): > 50 µM
- potency (CYP; isoform 1A2): weak
- IC50 (CYP; isoform 2C9): 42.6 µM
- potency (CYP; isoform 2C9): weak
- IC50 (CYP; isoform 2C19): > 50 µM
- potency (CYP; isoform 2C19): weak
- IC50 (CYP; isoform 2D6): 20.5 µM
- potency (CYP; isoform 2D6): weak
- IC50 (CYP; isoform 3A4): 8.79 µM
- potency (CYP; isoform 3A4): moderate
- perc_inhibition (% inhibition of the binding of a ligand specific for each target) (alpha2A (h)): 11%
- perc_inhibition: % inhibition of control enzyme activity, COX2(h) (COX2(h)): -9%

Structure (SMILES): Cc1nn(C)cc1-c1cc2c(NC(c3ccc4c(c3)S(=O)(=O)CCC4)C(C)C)ncnc2[nH]1 (stereo not drawn) [ASAP-0011446]
- perc_inhibition (% inhibition of the binding of a ligand specific for each target) (KV channel): 1%
- perc_inhibition (% inhibition of the binding of a ligand specific for each target) [2]: 12%
- inhibition at 10 µM (Lck kinase (h); read-out: perc_inhibition: % inhibition of control enzyme activity, Lck kinase (h)): 33%
- inhibition at 10 µM (PDE3A (h); read-out: perc_inhibition: % inhibition of control enzyme activity, PDE3A (h)): 46%
- perc_inhibition (% inhibition of the binding of a ligand specific for each target) (Na+ channel (site 2)): -1%
- EC50 (MERS-CoV; [6]): > 5 µM
- EC90 (MERS-CoV; [6]): > 5 µM
- perc_max_measured (MERS-CoV; Vero E6/TMPRSS2 MERS-CoV antiviral effect with P-gp inhibitor, maximum measured response of dose series): 103.374% and 130.763%
- perc_min_measured (MERS-CoV; Vero E6/TMPRSS2 MERS-CoV antiviral effect with P-gp inhibitor, minimum measured response of dose series): 64.505% and 89.964%
- inhibition at 10 µM (beta1 (h); [7]): 1%
- cc10 (Vero E6/TMPRSS2): > 5.0 µM
- perc_max_measured (Vero E6/TMPRSS2; highest measured response of the dose series): 106.351%
- perc_min_measured (Vero E6/TMPRSS2; lowest measured response of the dose series): 79.435%
- inhibition at 10 µM (PDE4D2 (h); read-out: perc_inhibition: % inhibition of control enzyme activity, PDE4D2 (h)): 43%
- clearance (metabolic stability), in words ([3]; HLM/MLM): moderate-to-high clearance
- perc_remaining [3, 5]: 1.0%
- t_half [3, 5]: 6.1 min
- perc_remaining_no_cofactor [3, 5]: 113.0%
- microsomal CLint ([3]; liver microsomes, In vitro human liver microsomal stability): 273 µL/min/mg
- inhibition at 10 µM (alpha2A (h); [7]): 5%
- inhibition at 10 µM (COX2(h); read-out: perc_inhibition: % inhibition of control enzyme activity, COX2(h)): 23%
